Read-outs that look alike come from different tables or passages of the source.

We go through five molecules from US11013745B2, “Triazolopyrimidine, triazolopyridine compounds, and the composition thereof for treating PRC2-mediated diseases” (SHANGHAI INSTITUTE OF MATERIA MEDICA, CHINESE ACADEMY OF …, priority 2017, dated 2021).

Data set [1] deals with Pfeiffer cells. Put plainly: Pfeiffer cell growth inhibition in a long term (11 days), CellTiter-Glo. It is filed as cell-based, Human. The following applies: read-out: Experiment on Pfeiffer cell growth inhibition in a long term (11 days IC50). In a few lines:
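Exponentially growing cells seeded at 1*10E5 cells/mL and treated the same day with a concentration range. Media and compound were refreshed at days 4 and 7. Viability was read by CellTiter-Glo after 11 days and GI50 values were derived.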

The test system of data set [2] is Pfeiffer cells. Nature of the data set: Growth inhibition of Pfeiffer cells in a long term (14 days), CellTiter-Glo. Type of data set: cell-based, Human. The following applies: read-out: Pfeiffer (14 days) IC50. How it is done:
In a CO2 cell incubator (37° C., 5% CO2), Human diffuse large B-cell lymphoma (DLBCL) cell line, pfeiffer (obtained from ATCC, CRL-2632) were incubated with RPMI 1640 medium (Gibco, purchased from Life Technologies, 22400-089) containing 10% fetal bovine serum (Gibco, purchased from Life Technologies, 10099-141) and 1% antibiotics (penicillin and streptomycin, purchased from Life Technologies, 10378016). […] After seeding the cells, they were placed in a CO2 incubator and allowed to stand for 1 hour. In a 24-well plate containing cells, 2 μL of three-fold gradient of the compounds at 9 different concentrations or DMSO were added to each well, such that the final concentration of the compounds was 0.003-20 μM or 0.3-2000 nM, and the final concentration of DMSO was 0.2%. At day 4, day 7, and day 11 of compound treatment, the fresh medium and compounds were changed, and the cell density of the DMSO control well was diluted to 2*10E5 cells/mL. The cell dilution ratio for other compound wells was the same as that of the DMSO control well. Cell viability was determined by using CellTiter-Glo reagent (purchased from Promega Inc., G7572): cells treated with the compounds for 14 days were transferred to a white 384-well plate (OptiPlate-384, purchased from PerkinElmer, 6007299) at 40 μL/well, an equal volume of CellTiter-Glo reagent was further added. After incubating at room temperature for 10 min, the cold luminescence signal was detected with a multifunctional microplate reader EnVision (PerkinElmer) at a wavelength of 400 to 700 nm. Data were analyzed using GraphPad Prism 5.0 software, and IC50 values were obtained.

A further data set relates to Karpas-422 cells. Nature of the data set: Growth inhibition of Karpas-422 cells in a long term (11 days), CellTiter-Glo. Type of data set: cell-based, Human. The following applies: read-out: Karpas-422 (11 days) IC50.
The test system of another data set is SU-DHL-4 cells. Nature of the data set: Growth inhibition of SU-DHL-4 cells in a long term (11 days), CellTiter-Glo. It is filed as cell-based, Human. The following applies: read-out: SU-DHL-4 (11 days) IC50.
The nature of data set [3]: Oral pharmacokinetics in rats. It is filed as in vivo. The following applies: male, SD, plasma, rat, intragastric, 3 mg/kg; for AUC(0-inf): extrapolated to infinity, read-out: AUCINF_obs; for MRT inf: read-out: Average residence time MRTINF_obs; for half-life: read-out: Half life T1/2 (converted); for Cmax: read-out: Peak concentration Cmax. How it is done: 1. Healthy male SD rats were used as test animals, EED226, […]-07 (3 mg/kg) were administered intragastrically, and the drug concentrations in rat plasma were determined by LC/MS/MS method at different time points after drug administration. The pharmacokinetic behavior of the compounds of the present invention in rats was studied, and the pharmacokinetic properties were evaluated. 2. The test animals were healthy adult male SD rats, with 3 rats in each group, purchased from Shanghai Xipuer-Bikai Laboratory Animal Limited Company. 3. Drug preparation: Compounds EED226, […] were dissolved in DMSO/0.5% HPMC (5/95, v/v) for preparation. The compound SL-ZYE-07 was dissolved in 0.5% HPMC (containing 0.5% Tween 80), vortexed, and sonicated to disperse the solid matter uniformly to obtain a pale white suspension. 4, Operation: EED226, […]-07 were administered to rats by intragastric administration (3 mg/kg), 45 μL of blood was taken through the femoral vein at 0.25, 0.5, 1, 2, 4, 8, 24 hour after administration, and centrifuged in a heparinized centrifuge tube for 5 min, and the plasma samples were separated for analysis. The contents of test compounds in rat plasma after intragastric administration of different compounds were determined by Liquid chromatography-mass spectrometry (LC-MS/MS).

Data set [4] is described as follows: Liver microsomal stability (human). Type of data set: in vitro ADME. The following applies: for Clearance rate in vivo Clint In Vivo Extpl / Intrinsic clearance rate in vivo Clint In Vitro / Liver clearance rate Clint Hep In Vivo Extpl: human liver microsomes; for half-life / bioavailability: human, liver microsomes, pH 7.4, human liver microsomes; for half-life: read-out: Half life T-half; for bioavailability: read-out: Metabolic bioavailability MF %. An outline of the steps: (§1)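 Human, mouse and rat liver microsomes were incubated with NADPH and MgCl2 in 0.1 M Tris pH 7.4, with compound at a 0.2 μM working solution. Remaining compound was quantified by LC/MS over the incubation time. The slope of log remaining versus time gave Clint, which was scaled to predicted Cl, Clhep and % MF.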

The nature of data set [5]: Liver microsomal stability (rat). It is filed as in vitro ADME. The following applies: for Clearance rate in vivo Clint In Vivo Extpl / Intrinsic clearance rate in vivo Clint In Vitro / Liver clearance rate Clint Hep In Vivo Extpl / Metabolic bioavailability MF %: rat liver microsomes; for half-life: rat, liver microsomes, pH 7.4, rat liver microsomes, read-out: Half life T-half. In a few lines:
as §1

A short description of data set [6]: Liver microsomal stability (mouse). Type of data set: in vitro ADME. The following applies: for Clearance rate in vivo Clint In Vivo Extpl / Intrinsic clearance rate in vivo Clint In Vitro / Liver clearance rate Clint Hep In Vivo Extpl / Metabolic bioavailability MF %: mouse liver microsomes; for half-life: mouse, liver microsomes, pH 7.4, mouse liver microsomes, read-out: Half life T-half.

A further data set concerns the target PRC2 enzyme (Homo sapiens (Human), UniProt O75530). Nature of the data set: PRC2 enzyme activity, TR-FRET method. Type of data set: biochemical. In a few lines: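 Enzyme preincubated with compound 30 min at room temperature; reaction started with biotin-labeled histone H3 peptide and SAM, run 4 h at room temperature.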
[7] abbreviates: Homo sapiens, 264 h, Karpas-422, 11 days.
The mark [8] stands for this setting: Homo sapiens, 264 h, SU-DHL-4, 11 days.

PRC2 enzyme, sequence (O75530 whole entry): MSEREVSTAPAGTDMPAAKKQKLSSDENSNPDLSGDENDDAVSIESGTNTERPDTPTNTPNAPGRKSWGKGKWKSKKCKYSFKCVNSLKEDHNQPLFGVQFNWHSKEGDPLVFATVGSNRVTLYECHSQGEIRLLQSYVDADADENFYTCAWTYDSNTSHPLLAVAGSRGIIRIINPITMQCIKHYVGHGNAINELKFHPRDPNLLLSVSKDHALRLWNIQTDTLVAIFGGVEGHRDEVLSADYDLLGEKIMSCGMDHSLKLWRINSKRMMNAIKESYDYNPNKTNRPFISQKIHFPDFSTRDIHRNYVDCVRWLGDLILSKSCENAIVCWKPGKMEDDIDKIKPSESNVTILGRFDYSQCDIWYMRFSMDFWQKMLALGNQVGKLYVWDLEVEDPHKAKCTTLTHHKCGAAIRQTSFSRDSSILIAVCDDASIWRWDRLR
PRC2 enzyme, sequence (Q15910 whole entry partner): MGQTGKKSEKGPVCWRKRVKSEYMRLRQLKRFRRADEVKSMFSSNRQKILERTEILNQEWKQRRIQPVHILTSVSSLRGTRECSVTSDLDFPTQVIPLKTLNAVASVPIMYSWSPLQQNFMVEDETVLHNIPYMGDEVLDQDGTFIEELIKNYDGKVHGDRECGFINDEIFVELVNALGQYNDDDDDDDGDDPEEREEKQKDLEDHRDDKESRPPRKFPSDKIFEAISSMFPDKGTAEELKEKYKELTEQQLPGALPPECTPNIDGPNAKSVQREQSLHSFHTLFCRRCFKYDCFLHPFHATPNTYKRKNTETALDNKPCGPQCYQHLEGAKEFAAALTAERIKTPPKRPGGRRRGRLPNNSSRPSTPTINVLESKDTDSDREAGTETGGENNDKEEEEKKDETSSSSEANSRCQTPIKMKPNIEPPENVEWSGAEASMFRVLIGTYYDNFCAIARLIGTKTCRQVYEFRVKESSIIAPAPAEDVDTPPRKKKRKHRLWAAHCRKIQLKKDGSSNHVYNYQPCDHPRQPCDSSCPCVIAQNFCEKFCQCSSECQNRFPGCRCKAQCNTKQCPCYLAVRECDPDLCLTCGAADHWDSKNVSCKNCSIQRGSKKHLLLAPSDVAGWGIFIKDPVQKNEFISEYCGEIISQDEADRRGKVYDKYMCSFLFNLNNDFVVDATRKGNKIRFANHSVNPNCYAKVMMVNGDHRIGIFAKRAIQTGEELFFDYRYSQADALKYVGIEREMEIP
PRC2 enzyme, sequence (Q15022 whole entry partner): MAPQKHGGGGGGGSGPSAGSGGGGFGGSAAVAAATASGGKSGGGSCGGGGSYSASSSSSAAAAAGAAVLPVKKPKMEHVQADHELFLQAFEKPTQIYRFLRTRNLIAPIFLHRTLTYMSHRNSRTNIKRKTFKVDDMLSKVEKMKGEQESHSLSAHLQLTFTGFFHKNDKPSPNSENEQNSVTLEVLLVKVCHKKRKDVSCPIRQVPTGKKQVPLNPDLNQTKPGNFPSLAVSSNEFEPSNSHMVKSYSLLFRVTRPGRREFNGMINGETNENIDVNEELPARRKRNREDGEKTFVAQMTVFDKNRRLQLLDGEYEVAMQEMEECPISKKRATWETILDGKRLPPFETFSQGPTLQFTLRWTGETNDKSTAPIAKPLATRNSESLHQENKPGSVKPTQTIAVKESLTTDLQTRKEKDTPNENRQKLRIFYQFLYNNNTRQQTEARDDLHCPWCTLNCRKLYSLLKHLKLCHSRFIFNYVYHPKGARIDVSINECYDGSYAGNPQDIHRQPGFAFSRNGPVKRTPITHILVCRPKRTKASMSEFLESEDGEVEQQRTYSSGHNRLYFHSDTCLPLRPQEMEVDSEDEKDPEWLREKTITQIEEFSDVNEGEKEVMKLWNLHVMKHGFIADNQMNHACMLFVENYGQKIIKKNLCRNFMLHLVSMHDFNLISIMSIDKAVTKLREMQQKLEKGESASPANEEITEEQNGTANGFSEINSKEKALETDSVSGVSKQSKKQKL

In the case of `Fc1ccc2c(c1CNc1ncc(C3=CCOCC3)c3nncn13)CCO2` [E-Y1], the IC50 in the data set with Pfeiffer cells [1] (Homo sapiens, 264 h, 11 days) is 8 nM. The IC50 with Pfeiffer cells [2] (Homo sapiens, 336 h, 14 days) is 4 nM. For the same molecule, the IC50 in the data set with Karpas-422 cells (setting [7]) stood at 19 nM. Moreover, the IC50 in the data set with SU-DHL-4 cells (setting [8]) amounted to 4 nM. Also, in data set [3], the AUC(0-t) was 2200 ± 237 ng·h/mL, the AUC(0-inf) is 2200 ± 239 ng·h/mL, the MRT inf came to 5.46 ± 0.342 h and the half-life is 2.32 ± 0.268 h. The Cmax in data set [3] was 302 ± 6.4 ng/mL. Further, in data set [4], the “Clearance rate in vivo Clint In Vivo Extpl” value came to 1613 mL/min, the “Intrinsic clearance rate in vivo Clint In Vitro” value (shortened to “Intrinsic clearance rate”) turned out to be 21.1 mL/min/gprot, the “Liver clearance rate Clint Hep In Vivo Extpl” value is 777 mL/min and the half-life was 1.66 h. Besides, the bioavailability in data set [4] stood at 48.2%. Moreover, in data set [5], the “Clearance rate in vivo Clint In Vivo Extpl” value turned out to be 15.9 mL/min, the “Intrinsic clearance rate” value was determined as 35.2 mL/min/gprot, the “Liver clearance rate Clint Hep In Vivo Extpl” value was found to be 8.85 mL/min and the “Metabolic bioavailability MF %” value is on record as 55.8%. Also, the half-life in [5] was determined as 0.993 h. For the same molecule, in data set [6], the “Clearance rate in vivo Clint In Vivo Extpl” value worked out at 1.98 mL/min, the “Intrinsic clearance rate” value came out at 29.4 mL/min/gprot, the “Liver clearance rate Clint Hep In Vivo Extpl” value was 1.19 mL/min and the “Metabolic bioavailability MF %” value was 60.2%. Also, in data set [6], the half-life is 1.19 h.

For `CC(=O)N1CC=C(c2cnc(NCc3c(F)ccc4c3CCO4)n3cnnc23)CC1` [E-Y15], the IC50 on PRC2 enzyme was determined as 5.6 nM; in the data set on Pfeiffer cells [1] (Homo sapiens, 264 h, 11 days), 1.9 nM; with Pfeiffer cells [2] (Homo sapiens, 336 h, 14 days), 0.7 nM; in the data set on Karpas-422 cells (setting [7]), 7 nM; with SU-DHL-4 cells (setting [8]) it was 3 nM. The “Clearance rate in vivo Clint In Vivo Extpl” value is 1280 mL/min in [4], 64.7 mL/min in data set [5] and 5.51 mL/min in data set [6]. The figures for the “Intrinsic clearance rate” value in [4], in data set [5] and in data set [6] were 16.7 mL/min/gprot, 144 mL/min/gprot and 81.6 mL/min/gprot, respectively. Moreover, the “Liver clearance rate Clint Hep In Vivo Extpl” value in [4] came to 691 mL/min; in data set [5], 15.3 mL/min; in [6], 1.94 mL/min. In addition, the half-life in data set [4] is 2.1 h; in data set [5] it was 0.243 h; in [6] it was 0.428 h. Further, the bioavailability in data set [4] worked out at 54%. In addition, the figures for the “Metabolic bioavailability MF %” value in [5] and in data set [6] were 23.6% and 35.3%, respectively.

Regarding `CS(=O)(=O)c1ccc(-c2cnc(NCc3ccco3)n3cnnc23)cc1` [EED226, reference compound], at PRC2 enzyme, the IC50 amounted to 104 nM. Besides, in the data set on Pfeiffer cells [1] (Homo sapiens, 264 h), the IC50 worked out at 52 nM. Also, the IC50 in the data set with Pfeiffer cells [2] (Homo sapiens, 336 h) is 44 nM. Further, in the data set on Karpas-422 cells (Homo sapiens, KARPAS-422, 264 h), the IC50 was 167 nM. In the data set with SU-DHL-4 cells (Homo sapiens, SU-DHL-4, 264 h), the IC50 was 95 nM. Besides, in data set [3], the AUC(0-t) was 886 ± 336 ng·h/mL, the AUC(0-inf) is 915 ± 316 ng·h/mL, the MRT inf worked out at 2.55 ± 1.08 h and the half-life was 1.63 ± 0.411 h. Moreover, the Cmax in data set [3] was 464 ± 429 ng/mL.

In turn, `Fc1ccc2c(c1CNc1ncc(C3=CCCOCC3)c3nncn13)CCO2` [SL-ZYE-07] registered an IC50 against PRC2 enzyme of 7.3 nM. Besides, the IC50 in the data set on Pfeiffer cells [2] (Homo sapiens, 336 h, 14 days) is 1 nM. Moreover, the half-inhibitory concentration (IC50) with Karpas-422 cells (setting [7]) came out at 25 nM. Also, in the data set with SU-DHL-4 cells (setting [8]), the IC50 worked out at 5 nM. Further, in [3], the AUC(0-t) was determined as 891 ± 164 ng·h/mL, the AUC(0-inf) was 910 ± 174 ng·h/mL, the MRT inf was found to be 4.71 ± 0.896 h and the half-life was 3.77 ± 1.69 h. Further, the Cmax in data set [3] came to 155 ± 34.8 ng/mL.

`CC1C=C(c2cnc(NCc3c(F)ccc4c3CCO4)n3cnnc23)CCO1` (centres unmarked) [SL-ZYE-197]: the IC50 against PRC2 enzyme stood at 7.8 nM; with Pfeiffer cells [1] (11 days) it was 10 nM; with Pfeiffer cells [2] (14 days), 5 nM; with Karpas-422 cells (Karpas-422, 11 days), 16 nM; in the data set with SU-DHL-4 cells (SU-DHL-4, 11 days) it was 56 nM.
